This is an account of results in patent publication US20110288036A1, “Methods for Treating or Preventing Vascular Graft Failure” (priority 2010, published 2011).

The test system of experiment [1] is immortalized human pleural mesothelial cells (ATCC CRL-9444). As to the kind of experiment: IL-6 ELISA in TNF-α-stimulated mesothelial cells. The format is cell-based. The procedure:
Expression of inflammatory cytokines was induced by applying 1 or 10 ng/ml of TNF-α to cultured mesothelial cells. Briefly, immortalized human pleural mesothelial cells (ATCC CRL-9444) were grown in Medium199 with Earle's BSS, 0.75 mM L-glutamine (Mediatech Inc., Manassas, Va.), 1.25 g/l sodium bicarbonate (Sigma), 3.3 nM epidermal growth factor (EGF) (MBL International, Woburn, Mass.), 40 nM hydrocortisone (Sigma), 870 nM insulin (MBL International), 20 mM HEPES (Sigma), trace elements mixture B (Mediatech Inc., Waltham, Mass.), 10% fetal bovine serum (FBS) (Hyclone), and 1% penicillin/streptomycin (Mediatech Inc., Waltham, Mass.). […] Human mesothelial cells were treated with two different concentrations (1 and 10 ng/mL) of TNF-α for 2, 6, 12, and 24 hours (data not shown). […] Without TNF-α stimulation, mesothelial cells made negligible amounts of IL-6. […] In subsequent experiments designed to determine whether the MMI-0100 peptide ([…]; SEQ ID NO: 1) could reduce TNF-α induced IL-6 expression, both 1 and 10 ng/mL of TNF-α were selected as stimuli. 10 ng/mL of TNF-α is regarded as more physiologically relevant for mesothelial cells.
Prior to cytokine and/or inhibitor treatment, cells were allowed to acclimate in serum-free media consisting of only Medium199 with Earle's BSS, 0.75 mM L-glutamine, 1.25 g/l sodium bicarbonate, 20 mM HEPES, trace elements mixture B (Mediatech Inc., Waltham, Mass.), and 1% penicillin/streptomycin (Mediatech Inc., Waltham, Mass.) for 24 hours. […] Average concentration of IL-6 (pg/ml per 10^5 cells) at each time was determined by cytokine-specific ELISA.

The test system of experiment [2] is human saphenous vein (HSV). As to the kind of experiment: Human saphenous vein organ culture model of intimal hyperplasia. In kind it is cell-based. The settings on record: for average intimal thickness: control 81.6±17.3, pre-culture 43.7±7.8. The procedure: De-identified, discarded segments of human saphenous vein (HSV) were collected from consented patients undergoing coronary artery or peripheral vascular bypass surgeries. HSV segments were stored in a saline solution until the end of the surgical procedure, at which time they were placed in cold transplant harvest buffer (100 mM potassium lactobionate, 25 mM KH2PO4, 5 mM MgSO4, 30 mM Raffinose, 5 mM Adenosine, 3 mM Glutathione, 1 mM Allopurinol, 50 g/L Hydroxyethyl starch, pH 7.4). The vessels were used within 24 hours of harvest. Using sterile technique, HSV segments were transferred to a 60-mm Petri dish under a sterile hood. The edges (0.5 mm) of each segment were removed with a blade and excess adventitial tissue and fat removed with minimal manipulation. HSV segments were cut into consecutive rings of approximately 1.0 mm in width to be utilized for organ culture or muscle bath experiments. Two rings from each segment were immediately fixed in 10% formalin at 37° C. for 30 min to obtain pre-culture intimal thickening measurements.
After viability was determined in the muscle bath, additional rings were cut and placed in 8-well chamber slides and maintained in RPMI 1640 medium supplemented with 30% FBS, 1% L-glutamine and 1% penicillin/streptomycin for 14 days at 37° C. in an atmosphere of 5% CO2 in air. The rings were either untreated or treated with 10 μM, 50 μM or 100 μM of MMI-0100 peptide ([…] (SEQ ID NO: 1)). The culture medium with treatments was replaced every 2-3 days.
After 14 days of organ culture, vein segments were fixed in 0.5 mL of 10% formalin at 37° C. for 30 minutes and embedded in paraffin for sectioning. Beginning at the mid-portion of each ring, 5 transverse sections, spaced 5 μm apart, were cut for each specimen. Sections were then stained with Verhoeff-van Gieson stain. Each section was examined using light microscopy (Carl Zeiss, Thornwood, N.Y.) and 6 radially parallel measurements of intimal and medial thickness were randomly taken from each section ([…]). Intima was defined as tissue on the luminal side of the internal elastic lamina or the chaotic organization of the cells contained within it, whereas the medial layer was contained between the intimal layer and the external elastic lamina. Intimal and medial thickening was measured for each section at 5× magnification with the microscope's computerized image analysis system.
To this end, rings of human saphenous vein (HSV) were cultured in RPMI medium supplemented with L-glutamine (1%), penicillin/streptomycin (1%), and fetal bovine serum (FBS) (30%) at 5% CO2 and 37° C. for 14 days.
The effect of MMI-0100 ([…]; SEQ ID NO: 1) on development of intimal hyperplasia was further examined in a follow-up study in which intimal thickness of HSV in an organ culture model was measured in the presence of high serum and different concentrations (10-100 μM) of MMI-0100 ([…]; SEQ ID NO: 1). HSV were cultured for 14 days in 30% serum. All veins were deemed viable at the time of culture by adequate contraction with a phenylephrine challenge in a muscle bath. The average intimal thickness of pre-cultured vein segments was 43.7±7.8 μm. After culture, the average intimal thickness of the control was 81.6±17.3 μm. The average intimal thickness in the presence of 50 μM and 100 μM MMI-0100 ([…]; SEQ ID NO: 1) was 42.7±6.0 μm and 50.4±10.7 μm, respectively, with a significant reduction in intimal thickness (FIGS. 10A and 11).

On to YARAAARQARAKALARQLGVAA [MMI-0100], for which the IL-6 expression entry in experiment [1] (TNF-α 1 ng/mL, MMI-0100 1000 or 3000 μM, 6, 12, 24 hours) was “reduced IL-6 expression to the levels at or below the untreated baseline”; in experiment [1] (TNF-α 10 ng/mL, 3000 μM, every time point) it was “reduced IL-6 expression to the levels of the untreated baseline”; in experiment [1] (TNF-α 10 ng/mL, 6, 12, 24 hours), “still effective in reducing IL-6 expression triggered by TNF-α”. Further, the “mean intimal thickness of HSV in culture” value in experiment [2] (5 μM or 10 μM, 14 days culture, in contrast to r-HSPB1) is “significantly reduced the mean intimal thickness”. In experiment [2] (10 μM, 14 days culture), this sequence yielded a mean intimal thickness of 14 μm. The average intimal thickness in experiment [2] (50 μM, 14 days, 30% serum) was found to be 42.7±6.0 μm; in experiment [2] (100 μM, 14 days, 30% serum), 50.4±10.7 μm. Further, the “intima:media (I:M) ratio” value in experiment [2] (100 μM, 14 days, 30% serum) is reported as “greater reduction of the I:M ratio”.
